According to ChEMBL document CHEMBL1240297 (Cancer Res, 2005):
Calls of active or inactive are those of the source. The rule behind the calls is not given here. Where a SMILES comes first, the peptide text is derived from it. The star is where a group is joined. Cbz = O=C(OCc1ccccc1)*

Assays:
LP-1 [1] = assay: Induction of apoptosis in human LP-1 cells assessed as increase in level of cleaved PARP at 300 nM after 16 hrs by immunoblotting; assay type: functional, cell-based
LP-1 [2] = assay: Induction of apoptosis in human LP-1 cells assessed as reduction of Mcl-1 protein level at 300 nM after 16 hrs by immunoblotting; assay type: functional, cell-based
NCI-H929 [3] = assay: Induction of apoptosis in human NCI-H929 cells assessed as increase of p53 accumulation at 60 uM after 1.5 hrs by immunoblotting; assay type: functional, cell-based
NCI-H929 [4] = assay: Induction of apoptosis in human NCI-H929 cells assessed as fast migrating hypophosphorylated RNA polymerase 2A form at 60 uM after 1.5 hrs by immunoblotting; assay type: functional, cell-based
NCI-H929 [5] = assay: Induction of apoptosis in human NCI-H929 cells assessed as reduction of RNA polymerase 2 phosphoserine 2 level at 60 uM after 1.5 hrs by immunoblotting; assay type: functional, cell-based
NCI-H929 [6] = assay: Induction of apoptosis in human NCI-H929 cells assessed as changes in Bcl-2 protein level at 60 uM after 3 hrs by immunoblotting; assay type: functional, cell-based
NCI-H929 [7] = assay: Induction of apoptosis in human NCI-H929 cells assessed as changes in XIAP protein level at 60 uM after 3 hrs by immunoblotting; assay type: functional, cell-based
[8] = Cytotoxicity against human RPM18226 cells after 72 hrs by alamar blue assay; assay type: functional, cell-based; conditions: RPMI-8226, 72 h
[9] = Selectivity ratio of IC50 for CDK9/cyclin T to IC50 for CDK7/cyclin H
NCI-H929 [10] = assay: Induction of apoptosis in human NCI-H929 cells assessed as reduction of Mcl-1 protein level at 60 uM after 3 hrs by immunoblotting; assay type: functional, cell-based
NCI-H929 [11] = assay: Induction of apoptosis in human NCI-H929 cells assessed as reduction of total RNA polymerase 2 level at 60 uM after 1.5 hrs by immunoblotting; assay type: functional, cell-based
NCI-H929 [12] = assay: Induction of apoptosis in human NCI-H929 cells assessed as dephosphorylation of pRb at S249/T252 at 60 uM after 8 hrs by immunoblotting; assay type: functional, cell-based
LP-1 [13] = assay: Cytotoxicity against human LP-1 cells after 72 hrs by alamar blue assay; assay type: functional, cell-based; conditions: LP-1, 72 h
OPM-2 = assay: Cytotoxicity against human OPM2 cells after 72 hrs by alamar blue assay; assay type: functional, cell-based; conditions: OPM-2, 72 h
NCI-H929 [14] = assay: Induction of apoptosis in human NCI-H929 cells assessed as dephosphorylation of pRb at S249/T252 at 60 uM after 1.5 hrs by immunoblotting; assay type: functional, cell-based
[15] = Cytotoxicity against human NCI-H929 cells after 72 hrs by alamar blue assay; assay type: functional, cell-based; conditions: NCI-H929, 72 h
NCI-H929 [16] = assay: Induction of apoptosis in human NCI-H929 cells assessed as reduction of RNA polymerase 2 phosphoserine 5 level at 60 uM after 1.5 hrs by immunoblotting; assay type: functional, cell-based
NCI-H929 [17] = assay: Induction of apoptosis in human NCI-H929 cells assessed as […] slow migrating hyperphosphorylated RNA polymerase 2O form at 60 uM after 1.5 hrs by immunoblotting; assay type: functional, cell-based
NCI-H929 [18] = assay: Induction of apoptosis in human NCI-H929 cells assessed as changes in survivin protein level at 60 uM after 3 hrs by immunoblotting; assay type: functional, cell-based
[19] = Selectivity ratio of IC50 for CDK9/cyclin T to IC50 for CDK2/cyclin E
NCI-H929 [20] = assay: Induction of apoptosis in human NCI-H929 cells assessed as reduction of Hdm2 level at 60 uM after 1.5 hrs by immunoblotting; assay type: functional, cell-based
U-266 = assay: Cytotoxicity against human U266 cells after 72 hrs by alamar blue assay; assay type: functional, cell-based; conditions: U-266, 72 h
NCI-H929 [21] = assay: Induction of apoptosis in human NCI-H929 cells assessed as increase in level of cleaved PARP at 60 uM after 5 hrs by immunoblotting; assay type: functional, cell-based
NCI-H929 [22] = assay: Induction of apoptosis in human NCI-H929 cells at 30 uM after 3 hrs using TUNEL staining by flow cytometry; assay type: functional, cell-based
RPMI-8226 [23] = assay: Induction of apoptosis in human RPM18226 cells at 30 uM after 3 hrs using TUNEL staining by flow cytometry; assay type: functional, cell-based
NCI-H929 [24] = assay: Induction of apoptosis in human NCI-H929 cells at 30 uM after 24 hrs using TUNEL staining by flow cytometry; assay type: functional
NCI-H929 [25] = assay: Cytotoxicity against human NCI-H929 cells assessed as reduction of cell viability at 20 to 30 uM treated for 16 hrs followed by washout measured after total 72 hrs growth period alamar blue assay relative to control; assay type: functional, cell-based
NCI-H929 [26] = assay: Induction of apoptosis in human NCI-H929 cells assessed as […] slow migrating hyperphosphorylated RNA polymerase 2O form at 30 uM after 1.5 hrs by immunoblotting; assay type: functional, cell-based
NCI-H929 [27] = assay: Induction of apoptosis in human NCI-H929 cells assessed as reduction of RNA polymerase 2 phosphoserine 2 level at 30 uM after 1.5 hrs by immunoblotting; assay type: functional, cell-based
LP-1 [28] = assay: Cytotoxicity against human LP-1 cells assessed as reduction of cell viability at 20 to 30 uM treated for 24 hrs followed by washout measured after total 72 hrs growth period alamar blue assay relative to control; assay type: functional, cell-based
NCI-H929 [29] = assay: Induction of apoptosis in human NCI-H929 cells assessed as reduction of Hdm2 level at 30 uM after 1.5 hrs by immunoblotting; assay type: functional, cell-based
RPMI-8226 [30] = assay: Induction of apoptosis in human RPM18226 cells assessed as reduction of Mcl-1 protein level at 30 uM after 3 hrs by immunoblotting; assay type: functional, cell-based
LP-1 [31] = assay: Induction of apoptosis in human LP-1 cells assessed as reduction of RNA polymerase 2 phosphoserine 2 level at 30 uM after 1.5 hrs by immunoblotting; assay type: functional, cell-based
NCI-H929 [32] = assay: Induction of apoptosis in human NCI-H929 cells assessed as changes in survivin protein level at 30 uM after 3 hrs by immunoblotting; assay type: functional, cell-based
LP-1 [33] = assay: Cytotoxicity against human LP-1 cells assessed as reduction of cell viability at 20 to 30 uM treated for 8 hrs followed by washout measured after total 72 hrs growth period alamar blue assay relative to control; assay type: functional
NCI-H929 [34] = assay: Induction of apoptosis in human NCI-H929 cells assessed as reduction of total RNA polymerase 2 level at 30 uM after 1.5 hrs by immunoblotting; assay type: functional, cell-based
LP-1 [35] = assay: Induction of apoptosis in human LP-1 cells assessed as reduction of Mcl-1 protein level at 30 uM after 3 hrs by immunoblotting; assay type: functional, cell-based
NCI-H929 [36] = assay: Induction of apoptosis in human NCI-H929 cells assessed as reduction of RNA polymerase 2 phosphoserine 5 level at 30 uM after 1.5 hrs by immunoblotting; assay type: functional, cell-based
RPMI-8226 [37] = assay: Induction of apoptosis in human RPM18226 cells assessed as reduction of RNA polymerase 2 phosphoserine 2 level at 30 uM after 1.5 hrs by immunoblotting; assay type: functional, cell-based
NCI-H929 [38] = assay: Induction of apoptosis in human NCI-H929 cells assessed as reduction of Mcl-1 protein level at 30 uM after 3 hrs by immunoblotting; assay type: functional, cell-based
LP-1 [39] = assay: Induction of apoptosis in human LP-1 cells at 30 uM after 3 hrs using TUNEL staining by flow cytometry; assay type: functional, cell-based
[40] = Inhibition of CDK9/cyclin T
NCI-H929 [41] = assay: Induction of apoptosis in human NCI-H929 cells assessed as changes in Bcl-2 protein level at 30 uM after 3 hrs by immunoblotting; assay type: functional, cell-based
NCI-H929 [42] = assay: Induction of apoptosis in human NCI-H929 cells assessed as increase of p53 accumulation at 30 uM after 1.5 hrs by immunoblotting; assay type: functional, cell-based
NCI-H929 [43] = assay: Induction of apoptosis in human NCI-H929 cells assessed as fast migrating hypophosphorylated RNA polymerase 2A form at 30 uM after 1.5 hrs by immunoblotting; assay type: functional, cell-based
LP-1 [44] = assay: Induction of apoptosis in human LP-1 cells at 30 uM after 24 hrs using TUNEL staining by flow cytometry; assay type: functional
NCI-H929 [45] = assay: Induction of apoptosis in human NCI-H929 cells assessed as effect on total pRb level at 30 uM after 1.5 hrs by immunoblotting; assay type: functional, cell-based
NCI-H929 [46] = assay: Induction of apoptosis in human NCI-H929 cells assessed as changes in XIAP protein level at 30 uM after 3 hrs by immunoblotting; assay type: functional, cell-based
NCI-H929 [47] = assay: Induction of apoptosis in human NCI-H929 cells assessed as dephosphorylation of pRb at S249/T252 at 30 uM after 1.5 hrs by immunoblotting; assay type: functional, cell-based
RPMI-8226 [48] = assay: Induction of apoptosis in human RPM18226 cells at 30 uM after 24 hrs using TUNEL staining by flow cytometry; assay type: functional

CC(C)C[C@@H](C=O)NC(=O)[C@H](CC(C)C)NC(=O)[C@H](CC(C)C)NC(=O)OCc1ccccc1 (Cbz-Leu-Leu-Leu-aldehyde)
Activity (LP-1 [1]): Active | Activity (LP-1 [2]): inactive

OC[C@H]1O[C@@H](n2cnc3cc(Cl)c(Cl)cc32)[C@H](O)[C@@H]1O [DICHLORORIBOBENZIMIDAZOLE]
Activity (NCI-H929 [3]): Active | Activity (NCI-H929 [4]): Active | Activity (NCI-H929 [5]): Active | Activity (NCI-H929 [6]): Active | Activity (NCI-H929 [7]): Active | IC50 [8]: 46.8 µM | Ratio IC50 [9]: 25 | Activity (NCI-H929 [10]): Active | Activity (NCI-H929 [11]): inactive | Activity (NCI-H929 [12]): Active | IC50 (LP-1 [13]): 29.8 µM | IC50 (OPM-2): 29.5 µM | Activity (NCI-H929 [14]): inactive | IC50 [15]: 20.1 µM | Activity (NCI-H929 [16]): Active | Activity (NCI-H929 [17]): Active | Activity (NCI-H929 [18]): Active | Ratio IC50 [19]: 25 | Activity (NCI-H929 [20]): Active | IC50 (U-266): 41 µM | Activity (NCI-H929 [21]): Active

CC[C@H](CO)Nc1nc(NCc2ccccc2)c2ncn(C(C)C)c2n1 [SELICICLIB]
Activity (NCI-H929 [22]): Active | Activity (RPMI-8226 [23]): Active | Activity (NCI-H929 [24]): >=60% | Activity (NCI-H929 [25]): Active | Activity (NCI-H929 [26]): Active | Activity (NCI-H929 [27]): Active | Activity (LP-1 [28]): Active | Activity (NCI-H929 [29]): Active | Activity (RPMI-8226 [30]): Active | Activity (LP-1 [31]): Active | Activity (NCI-H929 [32]): Active | IC50 [8]: 19.5 µM | Activity (LP-1 [33]): 50% | Activity (NCI-H929 [34]): inactive | IC50 (LP-1 [13]): 12.7 µM | Activity (LP-1 [35]): Active | Activity (NCI-H929 [36]): Active | Activity (RPMI-8226 [37]): Active | IC50 (OPM-2): 18.5 µM | Activity (NCI-H929 [38]): Active | Activity (LP-1 [39]): Active | IC50 [40]: 0.81 µM | Activity (NCI-H929 [41]): Active | Activity (NCI-H929 [42]): Active | Activity (NCI-H929 [43]): inactive | Activity (LP-1 [44]): >=60% | Activity (NCI-H929 [45]): inactive | Activity (NCI-H929 [46]): Active | Activity (NCI-H929 [47]): Active | Activity (RPMI-8226 [48]): >=60% | IC50 (U-266): 17.9 µM
